# Experimental data reported in patent US12071425B2 (Genentech, Inc., priority 2018, dated 2024).
# Counter-ions that a name gives are not always drawn.
# Biological target: kinase domain of IRE1 alpha (His-tagged kinase dead construct KR, AA G547-L977, D688N) (Homo sapiens (Human), UniProt O75460, D688N)
# Test: IRE1α TR-FRET competition binding assay
# Conditions: competition with Kinase Tracer 236, 0.1 μM; one hour at room temperature
# Procedure, shortened: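 Sf9-expressed kinase-dead KR construct (0.006 μM final) pre-incubated 1 h at 4° C with Eu anti-His antibody (0.002 μM) in HEPES pH 7.5/MgCl2/Brij/DTT buffer; Kinase Tracer 236 (ATP-competitive probe, 0.1 μM final) added with compound. 1 h at room temperature; tracer displacement read by TR-FRET (665/615 nm).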
# Sequence of kinase domain of IRE1 alpha (His-tagged kinase dead construct KR, AA G547-L977, D688N) (O75460 547-977 D688N): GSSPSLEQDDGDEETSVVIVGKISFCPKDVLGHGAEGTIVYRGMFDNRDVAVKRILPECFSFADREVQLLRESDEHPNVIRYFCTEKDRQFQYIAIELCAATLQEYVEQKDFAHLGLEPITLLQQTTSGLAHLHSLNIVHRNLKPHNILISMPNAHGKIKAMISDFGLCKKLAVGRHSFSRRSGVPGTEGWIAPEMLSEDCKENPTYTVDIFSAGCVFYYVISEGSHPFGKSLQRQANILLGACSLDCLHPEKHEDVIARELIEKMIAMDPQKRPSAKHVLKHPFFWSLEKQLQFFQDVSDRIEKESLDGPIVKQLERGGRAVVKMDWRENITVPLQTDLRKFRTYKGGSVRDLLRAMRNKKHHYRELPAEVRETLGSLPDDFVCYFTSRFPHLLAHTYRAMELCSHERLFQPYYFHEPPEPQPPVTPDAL
row,IC50,SMILES
1,5.1 nM,"Cc1cc(NS(=O)(=O)Cc2ccccc2)c(F)cc1Oc1ncccc1-c1ccnc(N[C@H]2CCCNC2)n1 [Compound 158, (S)-N-(2-fluoro-5-methyl-4-(3-(2-(piperidin-3-ylamino)pyrimidin-4-yl)pyridin-2-yloxy)phenyl)(phenyl)methanesulfonamide]"
2,6.9 nM,"C[C@]1(F)CNC[C@@H](Nc2nccc(-c3cccnc3Oc3ccc(NS(=O)(=O)Cc4ccccc4)c(F)c3F)n2)C1 [Compound 162, N-(2,3-difluoro-4-((3-(2-(((3S,5R)-5-fluoro-5-methylpiperidin-3-yl)amino)pyrimidin-4-yl)pyridin-2-yl)oxy)phenyl)-1-phenylmethanesulfonamide]"
3,2.7 nM,"C[C@H]1CNC[C@@H](Nc2nccc(-c3cccnc3Oc3cc(F)c(NS(=O)(=O)Cc4ccccc4)c(F)c3F)n2)C1 [Compound 165, 1-phenyl-N-(2,3,6-trifluoro-4-((3-(2-(((3S,5R)-5-methyl-3-piperidyl)amino)pyrimidin-4-yl)-2-pyridyl)oxy)phenyl)methanesulfonamide]"
4,4.1 nM,"N[C@H]1CC[C@H](Nc2nccc(-c3cccnc3Oc3ccc(NS(=O)(=O)Cc4ccccc4)c(F)c3F)n2)CC1 [Compound 169, N-(4-((3-(2-(((1r,4r)-4-Aminocyclohexyl)amino)pyrimidin-4-yl)pyridin-2-yl)oxy)-2,3-difluorophenyl)-1-phenylmethanesulfonamide]"
5,11 nM,"CN1CCC[C@H](Nc2nccc(-c3cccnc3Oc3ccc(NS(=O)(=O)Cc4ccccc4)c(F)c3F)n2)C1 [Compound 170, (S)-N-(2,3-difluoro-4-((3-(2-((1-methylpiperidin-3-yl)amino)pyrimidin-4-yl)pyridin-2-yl)oxy)phenyl)-1-phenylmethanesulfonamide]"
6,42 nM,"CNCCNc1nccc(-c2cccnc2Oc2ccc(NS(=O)(=O)Cc3ccccc3)c(F)c2F)n1 [Compound 172, N-(2,3-difluoro-4-((3-(2-(2-(methylamino)ethylamino)pyrimidin-4-yl)-2-pyridyl)oxy)phenyl)-1-phenyl-methanesulfonamide]"
7,3.1 nM,"C[C@@]1(F)CNC[C@@H](Nc2nccc(-c3cccnc3Oc3ccc(NS(=O)(=O)Cc4ccccc4)c(F)c3F)n2)C1 [Compound 174, N-(2,3-difluoro-4-((3-(2-(((3S,5S)-5-fluoro-5-methylpiperidin-3-yl)amino)pyrimidin-4-yl)pyridin-2-yl)oxy)phenyl)-1-phenylmethanesulfonamide]"
8,5.2 nM,"Cc1c(Oc2ncccc2-c2ccnc(N[C@H]3CCCNC3)n2)cc(F)c(NS(=O)(=O)Cc2ccccc2)c1C [Compound 175, (S)-N-(6-fluoro-2,3-dimethyl-4-((3-(2-(piperidin-3-ylamino)pyrimidin-4-yl)pyridin-2-yl)oxy)phenyl)-1-phenylmethanesulfonamide]"
9,3.5 nM,"Cc1cc(NS(=O)(=O)Cc2ccccc2)c(F)c(F)c1Oc1ncccc1-c1ccnc(N[C@@H]2CNC[C@@H](F)C2)n1 [Compound 178, N-(2,3-difluoro-4-((3-(2-(((3S,5S)-5-fluoro-3-piperidyl)amino)pyrimidin-4-yl)-2-pyridyl)oxy)-5-methyl-phenyl)-1-phenyl-methanesulfonamide]"
10,38 nM,"O=S(=O)(Cc1ccccc1)Nc1ccc(Oc2ncccc2-c2ccnc(NC3CCNCC3)n2)c(F)c1F [Compound 180, N-(2,3-difluoro-4-((3-(2-(4-piperidylamino)pyrimidin-4-yl)-2-pyridyl)oxy)phenyl)-1-phenyl-methanesulfonamide]"

# Continued, molecule first:
row,SMILES,IC50
1,"Cc1cc(NS(=O)(=O)Cc2ccccc2)ccc1Oc1ncccc1-c1ccnc(N[C@H]2CCCNC2)n1 [Compound 157, (S)-N-(3-methyl-4-((3-(2-(piperidin-3-ylamino)pyrimidin-4-yl)pyridin-2-yl)oxy)phenyl)-1-phenylmethanesulfonamide]",29 nM
2,"O=S(=O)(Cc1ccccc1)Nc1ccc(Oc2ncccc2-c2ccnc(N[C@H]3CCCNC3)n2)c(F)c1 [Compound 159, (S)-N-(3-fluoro-4-((3-(2-(piperidin-3-ylamino)pyrimidin-4-yl)pyridin-2-yl)oxy)phenyl)-1-phenylmethanesulfonamide]",11 nM
3,"Cc1cc(Oc2ncccc2-c2ccnc(N[C@H]3CCCNC3)n2)c(F)c(F)c1NS(=O)(=O)Cc1ccccc1 [Compound 160, (S)-N-(2,3-difluoro-6-methyl-4-((3-(2-(piperidin-3-ylamino)pyrimidin-4-yl)pyridin-2-yl)oxy)phenyl)-1-phenylmethanesulfonamide]",5.4 nM
4,"O=S(=O)(Cc1ccccc1)Nc1ccc(Oc2ncccc2-c2ccnc(N[C@H]3CCCNC3)n2)c(F)c1Cl [Compound 161, (S)—N-(2-Chloro-3-fluoro-4-((3-(2-(piperidin-3-ylamino)pyrimidin-4-yl)pyridin-2-yl)oxy)phenyl)-1-phenylmethanesulfonamide]",4.2 nM
5,"N#Cc1c(NS(=O)(=O)Cc2ccccc2)ccc(Oc2ncccc2-c2ccnc(N[C@H]3CCCNC3)n2)c1F [Compound 163, (S)-N-(2-cyano-3-fluoro-4-((3-(2-(piperidin-3-ylamino)pyrimidin-4-yl)pyridin-2-yl)oxy)phenyl)-1-phenylmethanesulfonamide hydrochloride]",6.6 nM
6,"Cc1c(Oc2ncccc2-c2ccnc(N[C@@H]3CNC[C@H](C)C3)n2)cc(F)c(NS(=O)(=O)Cc2ccccc2)c1F [Compound 164, N-(2,6-Difluoro-3-methyl-4-((3-(2-(((3S,5R)-5-methyl-3-piperidyl)amino)pyrimidin-4-yl)-2-pyridyl)oxy)phenyl)-1-phenyl-methanesulfonamide]",4 nM
7,"N#Cc1ccc(CS(=O)(=O)Nc2ccc(Oc3ncccc3-c3ccnc(N[C@H]4CCCNC4)n3)c(F)c2F)cc1 [Compound 166, (S)-1-(4-cyanophcnyl)-N-(2,3-difluoro-4-((3-(2-(piperidin-3-ylamino)pyrimidin-4-yl)pyridin-2-yl)oxy)phenyl)methanesulfonamide]",3.5 nM
8,"O=S(=O)(Cc1ccccc1)Nc1ccc(Oc2ncccc2-c2ccnc(N[C@H]3CCNC3)n2)c(F)c1F [Compound 167, (S)—N-(2,3-Difluoro-4-((3-(2-(pyrrolidin-3-ylamino)pyrimidin-4-yl)pyridin-2-yl)oxy)phenyl)-1-phenylmethanesulfonamide]",17 nM
9,"CN1CCC(Nc2nccc(-c3cccnc3Oc3ccc(NS(=O)(=O)Cc4ccccc4)c(F)c3F)n2)CC1 [Compound 168, N-(2,3-difluoro-4-((3-(2-((1-methylpiperidin-4-yl)amino)pyrimidin-4-yl)pyridin-2-yl)oxy)phenyl)-1-phenylmethanesulfonamide]",67 nM
10,"NCCNc1nccc(-c2cccnc2Oc2ccc(NS(=O)(=O)Cc3ccccc3)c(F)c2F)n1 [Compound 171, N-(4-((3-(2-((2-aminoethyl)amino)pyrimidin-4-yl)pyridin-2-yl)oxy)-2,3-difluorophenyl)-1-phenylmethanesulfonamide]",180 nM
11,"O=S(=O)(CC1CCC1)Nc1ccc(Oc2ncccc2-c2ccnc(N[C@H]3CCCNC3)n2)c(F)c1F [Compound 173, (S)-1-cyclobutyl-N-(2,3-difluoro-4-((3-(2-(piperidin-3-ylamino)pyrimidin-4-yl)pyridin-2-yl)oxy)phenyl)methanesulfonamide]",8.3 nM
12,"O=S(=O)(Cc1ccccc1)Nc1c(F)cc(Oc2ncccc2-c2ccnc(N[C@@H]3CNC[C@@H](F)C3)n2)c(F)c1F [Compound 176, 1-Phenyl-N-(2,3,6-trifluoro-4-((3-(2-(((3S,5S)-5-fluoropiperidin-3-yl)amino)pyrimidin-4-yl)pyridin-2-yl)oxy)phenyl)methanesulfonamide]",2.5 nM
13,"Cc1cc(NS(=O)(=O)Cc2ccccc2)c(F)c(F)c1Oc1ncccc1-c1ccnc(N[C@@H]2CNC[C@H](C)C2)n1 [Compound 177, N-(2,3-difluoro-5-methyl-4-((3-(2-(((3S,5R)-5-methyl-3-piperidyl)amino)pyrimidin-4-yl)-2-pyridyl)oxy)phenyl)-1-phenyl-methanesulfonamide]",4.9 nM
14,"Cc1c(Oc2ncccc2-c2ccnc(N[C@@H]3CNC[C@@H](F)C3)n2)cc(F)c(NS(=O)(=O)Cc2ccccc2)c1F [Compound 179, N-(2,6-difluoro-4-((3-(2-(((3S,5S)-5-fluoro-3-piperidyl)amino)pyrimidin-4-yl)-2-pyridyl)oxy)-3-methyl-phenyl)-1-phenyl-methanesulfonamide]",4.3 nM
15,"O=C1CC[C@H](Nc2nccc(-c3cccnc3Oc3ccc(NS(=O)(=O)Cc4ccccc4)c(F)c3F)n2)CN1 [Compound 181, (S)-N-(2,3-difluoro-4-((3-(2-((6-oxopiperidin-3-yl)amino)pyrimidin-4-yl)pyridin-2-yl)oxy)phenyl)-1-phenylmethanesulfonamide]",36 nM
16,"O=S(=O)(Cc1ccccc1)Nc1ccc(Oc2ncccc2-c2ccnc(N[C@H]3CC[C@H](O)CC3)n2)c(F)c1F [Compound 182, N-(2,3-difluoro-4-((3-(2-(((1r,4r)-4-hydroxycyclohexyl)amino)pyrimidin-4-yl)pyridin-2-yl)oxy)phenyl)-1-phenylmethanesulfonamide]",9.5 nM
17,"O=S(=O)(Cc1ccccc1)Nc1ccc(Oc2ncccc2-c2ccnc(N[C@@H]3CNCC(F)(F)C3)n2)c(F)c1F [Compound 183, (S)-N-(4-((3-(2-((5,5-difluoropiperidin-3-yl)amino)pyrimidin-4-yl)pyridin-2-yl)oxy)-2,3-difluorophenyl)-1-phenylmethanesulfonamide]",8.5 nM
18,"CN(C)CCNc1nccc(-c2cccnc2Oc2ccc(NS(=O)(=O)Cc3ccccc3)c(F)c2F)n1 [Compound 184, N-(4-((3-(2-((2-(dimethylamino)ethyl)amino)pyrimidin-4-yl)pyridin-2-yl)oxy)-2,3-difluorophenyl)-1-phenylmethanesulfonamide]",57 nM
